Experimental data taken from patent US20240116985A1, “STAPLED PEPTIDES AND METHODS THEREOF” (priority 2020, published 2024).
Where two headings read alike, the source gives them in different places.

Legend:
[1] = target: T1, full-length beta-Catenin (Uniprot ID P35222) (Homo sapiens, UniProt P35222); test: Fluorescence polarization IC50 (beta-catenin / 5FAM-TCF4 10-53 competition); format: binding
T1 construct: 10 nM full-length beta-Catenin (Uniprot ID P35222)
T1 sequence (P35222 1-781): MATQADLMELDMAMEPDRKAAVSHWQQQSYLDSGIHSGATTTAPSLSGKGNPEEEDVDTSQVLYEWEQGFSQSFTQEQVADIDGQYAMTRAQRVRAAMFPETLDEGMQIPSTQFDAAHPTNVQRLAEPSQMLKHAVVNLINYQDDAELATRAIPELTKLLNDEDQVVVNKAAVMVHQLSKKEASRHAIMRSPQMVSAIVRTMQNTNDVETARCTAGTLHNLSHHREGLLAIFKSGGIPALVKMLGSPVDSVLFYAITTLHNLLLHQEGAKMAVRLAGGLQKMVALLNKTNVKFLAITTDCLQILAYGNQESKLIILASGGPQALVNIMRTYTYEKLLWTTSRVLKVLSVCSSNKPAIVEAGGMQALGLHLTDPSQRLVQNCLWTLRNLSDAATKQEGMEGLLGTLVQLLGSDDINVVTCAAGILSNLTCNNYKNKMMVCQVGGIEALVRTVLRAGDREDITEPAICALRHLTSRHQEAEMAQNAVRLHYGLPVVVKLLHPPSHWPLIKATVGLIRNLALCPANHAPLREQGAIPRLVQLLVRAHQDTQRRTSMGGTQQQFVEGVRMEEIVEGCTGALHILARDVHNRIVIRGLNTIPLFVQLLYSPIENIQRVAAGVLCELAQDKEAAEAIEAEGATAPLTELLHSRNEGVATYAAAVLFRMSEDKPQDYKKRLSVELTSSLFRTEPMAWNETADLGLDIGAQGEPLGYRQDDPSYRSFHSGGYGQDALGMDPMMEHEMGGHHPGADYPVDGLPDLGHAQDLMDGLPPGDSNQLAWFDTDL

[2] = target: T2, full-length B-Catenin (Uniprot ID P35222) (Homo sapiens, UniProt P35222); test: Alphascreen binding assay (beta-catenin / biotin-TCF4 10-53)
T2 construct: 65 nM full-length B-Catenin (Uniprot ID P35222)
T2 sequence (P35222 1-781): T1 sequence (P35222 1-781)
Method in brief: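 Final concentrations: 65 nM full-length human β-catenin plus 10 nM biotin-TCF4(10-53) peptide, test peptide 3-fold from 10 uM to 5 nM, preincubated 15 min at 20 °C in Tris pH 8.0/250 mM NaCl buffer. Nickel-chelate AlphaScreen donor/acceptor beads then added for 60 min in the dark; duplicate reads fitted to 1:1 binding model with Hill slope.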

CHI Log D procedure = format: physicochemical; conditions: for CHI Log D: pH 7.4; for chromatographic logD: pH 7.4, CHI Log D
[3] = Table E2-1, read-out: beta-Catenin FP IC50
[4] = fluorescence polarization, beta-catenin, read-out: FP EC50

SMILES	IC50 [1, 3] [nM]	IC50 [1, 4] [nM]	EC50 [2] [nM]	CHI Log D (CHI Log D procedure)	chromatographic logD (CHI Log D procedure)
CC(=O)N1CCC[C@]12CC=CCCCC1(CCCC=CCCCCCC[C@@](C)(C(=O)N[C@@H](Cc3ccccc3)C(=O)N[C@@H](Cc3c[nH]c4ccccc34)C(=O)N[C@@H](CCC(N)=O)C(N)=O)NC(=O)[C@H](C(C)C)NC(=O)[C@H](Cc3cccc(C)c3)NC(=O)[C@H](C)NC(=O)[C@H](C)NC(=O)[C@H](CCC(=O)O)NC(=O)[C@H](CC(=O)O)NC1=O)NC(=O)[C@H](C)NC(=O)[C@H](CC(=O)O)NC2=O (stereo partly drawn) [I-207, Ac-PL3-Asp-Ala-B5-Asp-Glu-Ala-Ala-3MeF-Val-S8-Phe-Trp-Gln-NH2]	1750	1750	143	2.054	
COc1ccc(C[C@@H]2NC(=O)[C@H](C)NC(=O)[C@H](C)NC(=O)[C@H](CCC(=O)O)NC(=O)[C@H](CC(=O)O)NC(=O)C3(CCCC=CCCCCCC[C@@](C)(C(=O)N[C@@H](Cc4ccccc4)C(=O)N[C@@H](Cc4c[nH]c5ccccc45)C(=O)N[C@@H](CCC(N)=O)C(N)=O)NC(=O)[C@H](C(C)C)NC2=O)CCCC=CC[C@]2(CCCN2C(C)=O)C(=O)N[C@@H](CC(=O)O)C(=O)N[C@@H](C)C(=O)N3)cc1 (stereo partly drawn) [I-217, Ac-PL3-Asp-Ala-B5-Asp-Glu-Ala-Ala-MeTyr-Val-S8-Phe-Trp-Gln-NH2]	1960	1960	90	2.012	
CC(=O)N1CCC[C@]12CC=CCCCC1(CCCC=CCCCCCC[C@@](C)(C(=O)N[C@@H](Cc3ccccc3)C(=O)N[C@@H](Cc3c[nH]c4ccccc34)C(=O)N[C@@H](CCC(N)=O)C(N)=O)NC(=O)[C@H](C(C)C)NC(=O)[C@H](Cc3cc(F)cc(F)c3)NC(=O)[C@H](C)NC(=O)[C@H](C)NC(=O)[C@H](CCC(=O)O)NC(=O)[C@H](CC(=O)O)NC1=O)NC(=O)[C@H](C)NC(=O)[C@H](CC(=O)O)NC2=O (stereo partly drawn) [I-219, Ac-PL3-Asp-Ala-B5-Asp-Glu-Ala-Ala-35FF-Val-S8-Phe-Trp-Gln-NH2]	2860	2860	131	2.074	
CC(=O)N1CCC[C@]12CC=CCCCC1(CCCC=CCCCCCC[C@@](C)(C(=O)N[C@@H](Cc3ccccc3)C(=O)N[C@@H](Cc3c[nH]c4ccccc34)C(=O)N[C@@H](CCC(N)=O)C(N)=O)NC(=O)[C@H](C(C)C)NC(=O)[C@H](Cc3cccc(C(F)(F)F)c3)NC(=O)[C@H](C)NC(=O)[C@H](C)NC(=O)[C@H](CC(=O)O)NC(=O)[C@H](CC(=O)O)NC1=O)NC(=O)[C@H](C)NC(=O)[C@H](CC(=O)O)NC2=O (stereo partly drawn) [I-238, Ac-PL3-Asp-Ala-B5-Asp-Asp-Ala-Ala-3F3MeF-Val-S8-Phe-Trp-Gln-NH2]	1590	1590	267	2.074	
CC(=O)N1CCC[C@]12CC=CCCCC1(CCCC=CCCCCCC[C@@](C)(C(=O)N[C@@H](Cc3ccccc3)C(=O)N[C@@H](Cc3c[nH]c4ccccc34)C(=O)N[C@@H](CCC(N)=O)C(N)=O)NC(=O)[C@H](C(C)C)NC(=O)[C@H](Cc3cccc(C(F)(F)F)c3)NC(=O)[C@H](C)NC(=O)[C@H](C)NC(=O)[C@H](CC(=O)O)NC(=O)[C@H](CC(=O)O)NC1=O)NC(=O)[C@H](C)NC(=O)[C@H](CC(=O)O)NC2=O (stereo partly drawn) [I-239, Ac-PL3-Asp-Ala-B5-Asp-Asp-Ala-Ala-3F3MeF-Val-S8-Phe-Trp-Gln-NH2]		1590	267	2.074	
CC(=O)N1CCC[C@]12CC=CCCCC1(CCCC=CCCCCCC[C@@](C)(C(=O)N[C@@H](Cc3cccc4ccccc34)C(=O)N[C@@H](Cc3c[nH]c4ccccc34)C(=O)N[C@@H](CCC(N)=O)C(N)=O)NC(=O)[C@H](C(C)C)NC(=O)[C@H](Cc3ccccc3)NC(=O)[C@H](C)NC(=O)[C@H](C)NC(=O)[C@H](CC(=O)O)NC(=O)[C@H](CC(=O)O)NC1=O)NC(=O)[C@H](C)NC(=O)[C@H](CC(=O)O)NC2=O (stereo partly drawn) [I-276, Ac-PL3-Asp-Ala-B5-Asp-Asp-Ala-Ala-Phe-Val-S8-1NapA-Trp-Gln-NH2]	3430	3430	329	2.207	
CC(=O)N1CCC[C@]12CC=CCCCC1(CCCC=CCCCCCC[C@@](C)(C(=O)N[C@@H](Cc3c[nH]cn3)C(=O)N[C@@H](Cc3c[nH]c4ccccc34)C(=O)N[C@@H](CCC(N)=O)C(N)=O)NC(=O)[C@H](C(C)C)NC(=O)[C@H](Cc3ccccc3)NC(=O)[C@H](C)NC(=O)[C@H](C)NC(=O)[C@H](CC(=O)O)NC(=O)[C@H](CC(=O)O)NC1=O)NC(=O)[C@H](C)NC(=O)[C@H](CC(=O)O)NC2=O (stereo partly drawn) [I-285, Ac-PL3-Asp-Ala-B5-Asp-Asp-Ala-Ala-Phe-Val-S8-His-Trp-Gln-NH2]	5000		246		1.49
CC(=O)N1CCC[C@]12CC=CCCCC1(CCCC=CCCCCCC[C@@](C)(C(=O)N[C@@H](Cc3ccccc3)C(=O)N[C@@H](Cc3c[nH]c4ccccc34)C(=O)N[C@@H](C)C(N)=O)NC(=O)[C@H](C(C)C)NC(=O)[C@H](Cc3ccccc3)NC(=O)[C@H](C)NC(=O)[C@H](C)NC(=O)[C@H](CC(=O)O)NC(=O)[C@H](CC(=O)O)NC1=O)NC(=O)[C@H](C)NC(=O)[C@H](CC(=O)O)NC2=O (stereo partly drawn) [I-291, Ac-PL3-Asp-Ala-B5-Asp-Asp-Ala-Ala-Phe-Val-S8-Phe-Trp-Ala-NH2]	3130	3130	327	2.195	

Next, values leading:

IC50 [1, 3] [nM]	IC50 [1, 4] [nM]	EC50 [2] [nM]	CHI Log D (CHI Log D procedure)	chromatographic logD (CHI Log D procedure)	SMILES
1660	1660	240	2.412		CC[C@H](C)[C@@H]1NC(=O)[C@H](CC(=O)O)NC(=O)[C@]2(CC=CCCCC3(CCCC=CCCCCCC[C@@](C)(C(=O)N[C@@H](Cc4ccccc4)C(=O)N[C@@H](Cc4c[nH]c5ccccc45)C(N)=O)NC(=O)[C@H](CCC(N)=O)NC(=O)[C@H](Cc4ccccc4)NC(=O)[C@H](C)NC(=O)[C@H](C)NC(=O)[C@H](CCC(=O)O)NC(=O)[C@H](CC(=O)O)NC3=O)NC1=O)CCCN2C(C)=O (stereo partly drawn) [I-191, Ac-PL3-Asp-Ile-B5-Asp-Glu-Ala-Ala-Phe-Gln-S8-Phe-Trp-NH2]
	1660	240	2.412		CC[C@H](C)[C@@H]1NC(=O)[C@H](CC(=O)O)NC(=O)[C@]2(CC=CCCCC3(CCCC=CCCCCCC[C@@](C)(C(=O)N[C@@H](Cc4ccccc4)C(=O)N[C@@H](Cc4c[nH]c5ccccc45)C(N)=O)NC(=O)[C@H](CCC(N)=O)NC(=O)[C@H](Cc4ccccc4)NC(=O)[C@H](C)NC(=O)[C@H](C)NC(=O)[C@H](CCC(=O)O)NC(=O)[C@H](CC(=O)O)NC3=O)NC1=O)CCCN2C(C)=O (stereo partly drawn) [I-192, Ac-PL3-Asp-Ile-B5-Asp-Glu-Ala-Ala-Phe-Gln-S8-Phe-Trp-NH2]
533	533	76	2.462		CC[C@H](C)[C@@H]1NC(=O)[C@H](CC(=O)O)NC(=O)[C@]2(CC=CCCCC3(CCCC=CCCCCCC[C@@](C)(C(=O)N[C@@H](Cc4ccccc4)C(=O)N[C@@H](Cc4c[nH]c5ccccc45)C(N)=O)NC(=O)[C@H](CCC(N)=O)NC(=O)[C@H](Cc4ccccc4)NC(=O)[C@H](C)NC(=O)[C@H](C)NC(=O)[C@H](CCC(=O)O)NC(=O)[C@H](CC(=O)O)NC3=O)NC1=O)CCCN2C(C)=O (stereo partly drawn) [I-193, Ac-PL3-Asp-Ile-B5-Asp-Glu-Ala-Ala-Phe-Gln-S8-Phe-Trp-NH2]
1010		105		2.33	CC[C@H](C)[C@@H]1NC(=O)[C@H](CC(=O)O)NC(=O)[C@]2(CC=CCCCC3(CCCC=CCCCCCC[C@@](C)(C(=O)N[C@@H](Cc4ccccc4)C(=O)N[C@@H](Cc4c[nH]c5ccccc45)C(=O)N[C@@H](C)C(N)=O)NC(=O)[C@H](CCC(N)=O)NC(=O)[C@H](Cc4ccccc4)NC(=O)[C@H](C)NC(=O)[C@H](C)NC(=O)[C@H](CCC(=O)O)NC(=O)[C@H](CC(=O)O)NC3=O)NC1=O)CCCN2C(C)=O (stereo partly drawn) [I-194, Ac-PL3-Asp-Ile-B5-Asp-Glu-Ala-Ala-Phe-Gln-S8-Phe-Trp-Ala-NH2]
4950	4950	534	1.875		CC(=O)N1CCC[C@]12CC=CCCCC1(CCCC=CCCCCCC[C@@](C)(C(=O)N[C@@H](Cc3ccccc3)C(=O)N[C@@H](Cc3c[nH]c4ccccc34)C(=O)N[C@@H](CCC(N)=O)C(N)=O)NC(=O)[C@H](C)NC(=O)[C@H](Cc3ccccc3)NC(=O)[C@H](C)NC(=O)[C@H](C)NC(=O)[C@H](CC(=O)O)NC(=O)[C@H](CC(=O)O)NC1=O)NC(=O)[C@H](C)NC(=O)[C@H](CC(=O)O)NC2=O (stereo partly drawn) [I-287, Ac-PL3-Asp-Ala-B5-Asp-Asp-Ala-Ala-Phe-Ala-S8-Phe-Trp-Gln-NH2]
